We go through one compound from publication PMC7915940, “Synthesis, Antitumor and Antibacterial Studies of New Shortened Analogues of (KLAKLAK)2-NH2 and Their Conjugates Containing Unnatural Amino Acids” (Molecules, 2021).

In one data set the test system is Escherichia coli K12 407. It is filed as cell-based. The conditions noted are these: agar diffusion, E. coli K12 407. The procedure: Antibacterial properties of the obtained new peptides and their conjugates were tested against E. coli K12 407 strain. Antibacterial activity of tested compounds was proven through appear of free zone around the loaded disk-paper by means of agar-diffusion method (Figure 3).
All newly synthesized derivatives of (KLAKLAK)2-NH2 at two concentrations 10 μM and 20 μM, were tested against facultative anaerobic gram-negative Esherichia coli NBIMCC K12 407. The strains were obtained from the culture collection of Bulgarian National Bank for Industrial Microorganisms and Cell Cultures (Sofia, Bulgaria) and were cultured in Luria-Bertani (LB) medium (Mumbai, India). The microbiological tests were performed using the agar diffusion method. The overnight pure cultures from tested strains were prepared in liquid LB-medium. A single colony was used for inoculating the liquid LB medium in order to maintain initial bacterial concentration of 1 × 10^7 cfu/mL. 100 µL of bacterial suspensions were seeded on agar plates with solid LB-medium. After 30 min, sterile paper disks 6 mm in diameter were soaked with tested samples in amount of 6 µL and placed on the agar petri dishes surface. The plates were incubated for 24 h at 37 °C. The appeared inhibition zones and their size were measured. The sterile paper disks soaked with water was used as blank. Mean values were calculated by performing the experiments in triplicates.
(In agar diffusion tests the substance spreads into inoculated agar from a disc or well.)

Data set [1] can be described thus: In vitro cytotoxicity testing (3T3 NRU test). The format is cell-based. The conditions noted are these: mouse. The procedure: The newly synthesized compounds were studied for cytotoxicity by standard method (3T3 NRU-test). The cells were incubated with the test substances at a concentration of 30 to 4000 μM for 24 h. The cytotoxicity expressed, in % relative to the negative control was determined.
The cytotoxicity testing was performed as described by Borenfreund et al. and the latest modification of the validated BALB/3T3 clone A31 Neutral Red Uptake Assay (3T3 NRU test) for cytotoxicity testing. BALB/3T3, clone A31 mouse embryo cells were grown as monolayer in 75 cm^2 tissue culture flasks in DMEM high-glucose (4.5 g/L), supplemented with 10% FBS and antibiotics (Sigma-Aldrich, Schnelldorf, Germany). Cultures were maintained at 37.5 °C in a humidified atmosphere under 5% CO2. Cells were plated at a density of 1 × 10^4 cells in 100 μL culture medium in each well of 96-well flat-bottomed microplates (Biologix, Lenexa, KS, USA) and allowed to adhere for 24 h. The test compounds, dissolved in DMSO and diluted in culture medium to concentration range 30 to 4000 μM were then added and the cell cultures were incubated for additional 24 h. […] After treatment with Neutral Red medium, washing and treatment with the Ethanol/Acetic acid solution (NR Desorb), the absorption was measured on a TECAN microplate reader (TECAN, Grödig, Austria) at wavelength 540 nm.

The next data set relates to MDA-MB-231 cells. It is filed as cell-based, human. To be noted: 72 h. The procedure: (§1) The compounds were studied for antiproliferative activity by standard MTT dye reduction assay. Cell cultures from different cell line types (MCF-10A, MCF-7 and MDA-MB-231) were incubated with the test substances at a concentration of 15 to 2000 μM for 72 h. The antiproliferative activity expressed in % relative to the negative control was determined. The obtained results are shown on Figure 2. MCF-10A is a reliable model for normal human mammary epithelial cells, which serves as a control in experiments to determine antitumor activity. The IC50 values, found in MCF-10A, are used to calculate a selective index (SI), which assesses the potential of a substance to be used as an antitumor agent. We used the following formula to calculate the selective index SI = IC50 of MCF-10A / IC50 of tumor cells. The highest selective index with respect to MCF-7 is shown by the substances: Si3 (SI = 8.35), Si11 (SI = 2.62) and Si1 (SI = 1.24).
(§2) The antiproliferative activity testing was performed on cell cultures from several human cell lines using the standard MTT-dye reduction assay, described by Mosmann. The assay is based on the metabolism of the tetrazolium salt MTT to insoluble formazan by mitochondrial reductases. The formazan concentration can be determined spectrophotometrically. The measured absorption is an indicator of cell viability and metabolic activity. Cell lines: mammary gland type A adenocarcinoma ER+, PR+, HER2- (MCF-7), triple-negative breast cancer ER-, PR-, HER2- (MDA-MB-231) and breast, non-tumorigenic epithelial cell line (MCF-10A) were used in experiments. The cell lines were routinely grown as monolayers in 75 cm^2 tissue culture flasks under standard conditions (described above). Cells were plated at a density of 1 × 10^3 cells in 100 µL in each well of 96-well flat-bottomed microplates and allowed to adhere for 24 h before treatment with test compounds. A concentration range from 15 to 2000 μM was applied for 72 h. The formazan absorption was registered using a microplate reader at λ = 540 nm. Antiproliferative activities were expressed as IC50 values (concentrations required for 50% inhibition of cell growth), calculated using non-linear regression analysis (GraphPad Software, San Diego, CA, USA).

The test system of a further data set is MCF-7 cells. It is filed as cell-based, human. The procedure:
as §1, §2

For a further data set, the system named is MCF-10A cells. The format is cell-based, human. The conditions noted are these: 72 h. The procedure:
as §1, §2

Residues, ends and D or L forms follow the SMILES beside them. *: point of attachment. Caffeoyl = O=C(/C=C/c1ccc(O)c(O)c1)*

In the case of `CC(C)C[C@H](NC(=O)[C@H](CCCCN)NC(=O)/C=C/c1ccc(O)c(O)c1)C(=O)N[C@@H](C)C(=O)N[C@@H](CCCCN)C(=O)N[C@@H](CC(C)C)C(=O)N[C@@H](C)C(=O)N[C@@H](CCCCN)C(N)=O` [Si8, Caf-KLAKLAK-NH2] (Caffeoyl-KLAKLAK-NH2), the melting point (usually the temperature of the solid-liquid transition) was determined as 154 °C. Besides, the “antibacterial effect, zones free of microbial growth (in words)” value with Escherichia coli K12 407 is “clear zones free of microbial growth”. In data set [1], the IC50 (in general, the concentration needed to halve the response being measured) at 24 h was 710 ± 11.9 µM. In addition, the IC50 in the data set with MDA-MB-231 cells turned out to be 514 ± 26.8 µM. Also, the IC50 in the data set with MCF-7 cells (72 h) turned out to be 129 ± 8.03 µM. Also, the “selectivity with respect to the studied tumor cell lines (in words)” value in the data set with MCF-7 cells (MCF-7 and MDA-MB-231 versus MCF-10A) is “do not show selectivity”. Besides, the IC50 in the data set with MCF-10A cells came out at 136 ± 7.09 µM.
